Results from doi:10.1101/2023.03.15.532718v2, “Bacterial hemophilin homologs and their specific type eleven secretor proteins have conserved roles in heme capture and are diversifying as a family” (biorxiv, 2023).
Read-outs that look alike come from different tables or passages of the source.

How the values were obtained:
Hpl (hemophilin, Hh Hpl) = biological target: T1, Hpl (hemophilin, Hh Hpl) (Haemophilus haemolyticus, UniProt A0A0M3G7Q5); test: biochemical; format: binding
T1 construct: gene AAX18_03525; signal peptide omitted, expressed in E. coli cytoplasm as previously described, apo-protein by acid acetone; strain BW1 printed for the secretion clone only
T1 sequence (A0A0M3G7Q5 entry or part of it): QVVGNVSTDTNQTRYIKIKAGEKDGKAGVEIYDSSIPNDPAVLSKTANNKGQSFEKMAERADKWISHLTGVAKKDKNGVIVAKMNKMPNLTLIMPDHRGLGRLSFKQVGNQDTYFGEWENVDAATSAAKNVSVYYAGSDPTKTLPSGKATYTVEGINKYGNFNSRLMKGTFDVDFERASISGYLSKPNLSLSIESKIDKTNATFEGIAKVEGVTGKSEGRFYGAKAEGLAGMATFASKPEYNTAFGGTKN

Ab HphA = biological target: T2, Ab HphA (Acinetobacter baumannii, UniProt A0A059ZRB8); test: biochemical; set-up: UV-visible absorbance titration of porphyrin with protein, 1:1 fit with ligand depletion, 21 C pH 8.0
T2 construct: signal peptide omitted, expressed in E. coli cytoplasm, apo-protein
T2 sequence (A0A059ZRB8 whole entry): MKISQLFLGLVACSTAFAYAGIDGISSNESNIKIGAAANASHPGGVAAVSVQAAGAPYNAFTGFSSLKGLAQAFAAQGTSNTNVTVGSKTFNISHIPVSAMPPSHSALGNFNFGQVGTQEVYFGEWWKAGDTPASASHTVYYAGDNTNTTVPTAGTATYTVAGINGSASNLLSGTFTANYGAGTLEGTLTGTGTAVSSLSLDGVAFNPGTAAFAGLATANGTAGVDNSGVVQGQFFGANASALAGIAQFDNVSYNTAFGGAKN
Method: Hemin binding measurements in absorbance mode were made by successive additions of apo-protein (∼0.4 mM stock) into porphyrin solution (1.5 µM) in 20 mM Tris-HCl, pH 8 at 21°C. All binding experiments were performed at 21°C. Data were fitted to a 1:1 binding model accounting for ligand depletion, where Fobs is fluorescence signal, F0 is the starting [drawing 1] fluorescence, Fsat is a scaling factor for fluorescence at saturation, L and M are the ligand and macromolecule concentrations, respectively, and Kd is the equilibrium dissociation constant. Data were fitted using GNUPLOT version 4.6. […] Here, SSbest is the sum-of-squares for the fit with all parameters floated; Dfn and Dfd are the degrees of freedom in the numerator and denominator, respectively, for calculation of F. The Kd value was then fixed at values above or below the best-fit Kd until fits exceeded the threshold sum-of-squares. To determine a lower limit of Kd that we could expect to fit from absorbance measurements we simulated data for different Kd values with Gaussian noise added to give fits with SSbest that matched our experimental data. […] Titration of hemophilin homologues with hemin. […] A) Spectra recorded after addition of H. haemolyticus Hpl to a final concentration in the range 0.3–4.5 µM. B) Spectra recorded after addition of A. baumannii HphA to a final concentration in the range 0.4–3.8 µM. […]

CrpC (Xc CrpC) = biological target: T3, CrpC (Xc CrpC) (Xenorhabdus cabanillasii, UniProt A0A3D9UFK6); format: binding; details: 20 mM Tris-HCl pH 8.0, 21 °C, brackets 95% confidence interval
T3 construct: gene BDD26_3141; residues 23-238, signal peptide omitted, His6 tag cut by TEV leaving N-terminal Gly-His-Met, E. coli Rosetta-2, apo as purified; HGB2490 is the authors' collection number
T3 sequence (A0A3D9UFK6 entry or part of it): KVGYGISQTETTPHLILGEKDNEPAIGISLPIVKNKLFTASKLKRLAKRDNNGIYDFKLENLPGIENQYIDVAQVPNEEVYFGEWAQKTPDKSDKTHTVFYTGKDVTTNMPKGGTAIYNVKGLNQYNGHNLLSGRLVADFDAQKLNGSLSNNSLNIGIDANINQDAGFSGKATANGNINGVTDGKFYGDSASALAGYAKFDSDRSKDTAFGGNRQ

BSA = biological target: T4, BSA (Bos taurus, UniProt P02769); test: UV-visible absorption titration, […] fit; format: binding; details: 20 mM Tris-HCl pH 8.0, 21 °C, brackets 95% confidence interval
T4 construct: gene ALB
T4 sequence (P02769 25-607): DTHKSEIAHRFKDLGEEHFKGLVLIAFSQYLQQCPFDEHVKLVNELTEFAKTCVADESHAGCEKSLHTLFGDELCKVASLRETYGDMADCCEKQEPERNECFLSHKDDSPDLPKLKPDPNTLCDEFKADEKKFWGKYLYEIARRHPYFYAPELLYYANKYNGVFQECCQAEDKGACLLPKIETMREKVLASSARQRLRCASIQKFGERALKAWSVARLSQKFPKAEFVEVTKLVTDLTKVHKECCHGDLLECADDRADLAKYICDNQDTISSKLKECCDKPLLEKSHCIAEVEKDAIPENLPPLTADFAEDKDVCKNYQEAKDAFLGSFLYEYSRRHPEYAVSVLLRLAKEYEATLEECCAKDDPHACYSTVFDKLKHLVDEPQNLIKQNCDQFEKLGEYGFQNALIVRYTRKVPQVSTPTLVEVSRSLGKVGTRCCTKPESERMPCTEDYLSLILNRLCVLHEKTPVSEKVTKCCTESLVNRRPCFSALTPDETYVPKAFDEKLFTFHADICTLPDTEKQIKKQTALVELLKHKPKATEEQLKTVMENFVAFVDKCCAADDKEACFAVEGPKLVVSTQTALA

HrpC (Xn HrpC) = biological target: T5, HrpC (Xn HrpC) (Xenorhabdus nematophila, UniProt D3VG73); format: binding; details: 20 mM Tris-HCl pH 8.0, 21 °C, brackets 95% confidence interval
T5 construct: gene XNC1_0075; residues 23-247, signal peptide omitted, His6 tag cut by TEV leaving N-terminal Gly-His-Met, E. coli Rosetta-2, apo-protein by RP-HPLC
T5 sequence (D3VG73 entry or part of it): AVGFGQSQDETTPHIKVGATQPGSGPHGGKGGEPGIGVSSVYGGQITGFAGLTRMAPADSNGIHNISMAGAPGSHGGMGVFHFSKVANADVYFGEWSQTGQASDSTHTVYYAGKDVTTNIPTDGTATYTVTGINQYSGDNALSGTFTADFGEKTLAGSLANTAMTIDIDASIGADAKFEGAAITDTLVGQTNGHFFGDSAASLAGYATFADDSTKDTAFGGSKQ

SMILES | Kd (Hpl (hemophilin, Hh Hpl)) [nM] | Kd (Ab HphA) [nM] | Kd (CrpC (Xc CrpC)) | Kd (BSA) | Kd (HrpC (Xn HrpC)) [nM] | Kd (CrpC (Xc CrpC); apparent Kd) | Kd (BSA; apparent Kd) | Kd (HrpC (Xn HrpC); b21 prints both nM and µM for this value, table nM) [nM]
C=CC1=C(C)c2cc3[nH]c(cc4nc(cc5[nH]c(cc1n2)c(C)c5CCC(=O)O)C(CCC(=O)O)=C4C)c(C)c3C=C [PPIX] | 70 | ≤ 15 | 7 (3–11) × 10^3 nM | 11 (6–14) × 10^3 nM | 20 |  |  | 
C=CC1=C(C)C2=Cc3c(C=C)c(C)c4[n]3[Fe]([Cl])[n]3c(c(C)c(CCC(=O)O)c3=CC3=NC(=C4)C(C)=C3CCC(=O)O)=CC1=N2 [hemin] |  |  |  |  |  | 5 (1–9) × 10^3 nM | 2 (1–5) × 10^3 nM | 20
